Here are results for 8 compounds from ChEMBL document CHEMBL1150168, “Scabrolides A-D, four new norditerpenoids isolated from the soft coral Sinularia scabra” (2002).

A short description of experiment [1]: Cytotoxicity against human HEPA 59T/VGH cells by MTT assay. Format: functional. To be noted: read-out: ED50 (the source's name). Background: Tetrazolium dyes change colour on reduction, which living cells bring about.
The next experiment relates to KB. Briefly: Cytotoxicity against human KB cells by MTT assay. Format: functional. To be noted: read-out: ED50 (the source's name).

Values after ≈ are worked out from the molar mass of the structure shown.

With `C=C(C)[C@@H]1CC(=O)[C@H]2[C@H](C1)[C@@H]1C(=O)O[C@@H]3C[C@@]4(C)O[C@@H]2C(=O)[C@@H]4[C@H]13`, the EC50 (in experiment [1]; with KB) was > 20 µg/mL in each case.

Regarding `C=C(C)[C@H]1C/C=C2\C(=O)O[C@H](C[C@@]3(C)CC(=O)[C@@H](CC(=O)C1)O3)[C@H]2O`, the EC50 turned out to be 2.4 µg/mL (≈ 6.89 µM) in experiment [1] and 2.3 µg/mL (≈ 6.6 µM) with KB.

Take `C=C(C)[C@H]1C/C=C2\C(=O)O[C@H](C[C@@]3(C)CC(=O)[C@@H](CC(=O)C1)O3)[C@@H]2O`: the EC50 in experiment [1] was determined as 2.6 µg/mL (≈ 7.46 µM); in the experiment on KB, 2.5 µg/mL (≈ 7.18 µM).

As to `COc1cccc2c1C(=O)c1c(O)c3c(c(O)c1C2=O)C[C@@](O)(C(=O)CO)C[C@@H]3O[C@H]1C[C@H](N)[C@H](O)[C@H](C)O1` [DOXORUBICIN], the EC50 (in experiment [1]; in the experiment with KB) was 0.3 µg/mL (≈ 0.552 µM) each time.

Turning to `C=C(C)[C@H]1C/C=C(\C(=O)OC)CC(=O)C[C@@]2(C)CC(=O)[C@@H](CC(=O)C1)O2` [NORCEMBRENE 5], the EC50 is 17.5 µg/mL (≈ 48.3 µM) in experiment [1] and > 20 µg/mL with KB.

As to `C=C(C)[C@@H]1CC(=O)CC2=C(C1)[C@@H]1C(=O)O[C@@H]3C[C@](C)(O)[C@H](C2=O)[C@H]13` [SCABROLIDE A], the EC50 (in experiment [1]; in the experiment on KB) was > 20 µg/mL each time.

As for `C=C(C)[C@@H]1CC(=O)C[C@@H]2O[C@](C)(CC2=O)C[C@@H]2C=C(C(=O)O2)[C@@H](OC)C1` [SCABROLIDE C], the figures for the EC50 (in experiment [1]; in the experiment with KB) were 17.8 µg/mL (≈ 49.1 µM) and 11.9 µg/mL (≈ 32.8 µM), respectively.

As to `C=C(C)[C@H]1CC[C@]23O[C@H]2[C@@H](C[C@@]2(C)CC(=O)[C@H](CC(=O)C1)O2)OC3=O` [SCABROLIDE D], the EC50 (in experiment [1]; with KB) was > 20 µg/mL in each case.
